Test results as given in patent US9156845B2, “4-(substituted amino)-7H-pyrrolo[2,3-d] pyrimidines as LRRK2 inhibitors” (Pfizer Inc., priority 2012, dated 2015).

Key:
KHS1 = KHS1 (Homo sapiens (Human), UniProt Q9Y4K4); assay: ActivX kinase probe assay (human PBMC); format: binding; details: read-out: percent inhibition
MAP3K1 = MAP3K1 (Homo sapiens (Human), UniProt Q13233); assay: ActivX kinase probe assay (human PBMC); format: binding; details: read-out: percent inhibition
MSK1 domain1 = MSK1 domain1 (Homo sapiens (Human), UniProt O75582); assay: ActivX kinase probe assay (human PBMC); format: binding; details: read-out: percent inhibition
CHK2 = CHK2 (Homo sapiens (Human), UniProt O96017); assay: ActivX kinase probe assay (human PBMC); format: binding; details: read-out: percent inhibition
MAP2K3 = MAP2K3 (Homo sapiens (Human), UniProt P46734); assay: ActivX kinase probe assay (human PBMC); format: binding; details: read-out: percent inhibition
STLK5 = STLK5 (Homo sapiens (Human), UniProt Q7RTN6); assay: ActivX kinase probe assay (human PBMC); format: binding; details: read-out: percent inhibition
RSK1 domain1 = RSK1 domain1 (Homo sapiens (Human), UniProt Q15418); assay: ActivX kinase probe assay (human PBMC); format: binding; details: read-out: percent inhibition
PIK3C3 = PIK3C3 (Homo sapiens (Human), UniProt Q8NEB9); assay: ActivX kinase probe assay (human PBMC); format: binding; details: read-out: percent inhibition
MAST3 = MAST3 (Homo sapiens (Human), UniProt O60307); assay: ActivX kinase probe assay (human PBMC); format: binding; details: read-out: percent inhibition
DNAPK = DNAPK (Homo sapiens (Human), UniProt P78527); assay: ActivX kinase probe assay (human PBMC); format: binding; details: read-out: percent inhibition
p38d, p38g = assay: ActivX kinase probe assay (human PBMC); format: binding
MARK3 = MARK3 (Homo sapiens (Human), UniProt P27448); assay: ActivX kinase probe assay (human PBMC); format: binding; details: read-out: percent inhibition
TAO1, TAO3 = assay: ActivX kinase probe assay (human PBMC); format: binding
IKKa = IKKa (Homo sapiens (Human), UniProt O15111); assay: ActivX kinase probe assay (human PBMC); format: binding; details: read-out: percent inhibition
MST3 = MST3 (Homo sapiens (Human), UniProt Q9Y6E0); assay: ActivX kinase probe assay (human PBMC); format: binding; details: read-out: percent inhibition
LATS1 = LATS1 (Homo sapiens (Human), UniProt O95835); assay: ActivX kinase probe assay (human PBMC); format: binding; details: read-out: percent inhibition
Erk5 = Erk5 (Homo sapiens (Human), UniProt Q13164); assay: ActivX kinase probe assay (human PBMC); format: binding; details: read-out: percent inhibition
RSK1 domain2 = RSK1 domain2 (Homo sapiens (Human), UniProt Q15418); assay: ActivX kinase probe assay (human PBMC); format: binding; details: read-out: percent inhibition
RSK2 domain2 = RSK2 domain2 (Homo sapiens (Human), UniProt P51812); assay: ActivX kinase probe assay (human PBMC); format: binding; details: read-out: percent inhibition
TLK1 = TLK1 (Homo sapiens (Human), UniProt Q9UKI8); assay: ActivX kinase probe assay (human PBMC); format: binding; details: read-out: percent inhibition
PI4KB = PI4KB (Homo sapiens (Human), UniProt Q9UBF8); assay: ActivX kinase probe assay (human PBMC); format: binding; details: read-out: percent inhibition
IKKe = IKKe (Homo sapiens (Human), UniProt Q14164); assay: ActivX kinase probe assay (human PBMC); format: binding; details: read-out: percent inhibition
AKT2, AKT3 = assay: ActivX kinase probe assay (human PBMC); format: binding
ILK = ILK (Homo sapiens (Human), UniProt Q13418); assay: ActivX kinase probe assay (human PBMC); format: binding; details: read-out: percent inhibition
RIPK3 = RIPK3 (Homo sapiens (Human), UniProt Q9Y572); assay: ActivX kinase probe assay (human PBMC); format: binding; details: read-out: percent inhibition
NDR2 = NDR2 (Homo sapiens (Human), UniProt Q9Y2H1); assay: ActivX kinase probe assay (human PBMC); format: binding; details: read-out: percent inhibition
EphA1 = EphA1 (Homo sapiens (Human), UniProt P21709); assay: ActivX kinase probe assay (human PBMC); format: binding; details: read-out: percent inhibition
LYN = LYN (Homo sapiens (Human), UniProt P07948); assay: ActivX kinase probe assay (human PBMC); format: binding; details: read-out: percent inhibition
AKT1 = AKT1 (Homo sapiens (Human), UniProt P31749); assay: ActivX kinase probe assay (human PBMC); format: binding; details: read-out: percent inhibition
MAP3K5 = MAP3K5 (Homo sapiens (Human), UniProt Q99683); assay: ActivX kinase probe assay (human PBMC); format: binding; details: read-out: percent inhibition
HPK1 = HPK1 (Homo sapiens (Human), UniProt Q92918); assay: ActivX kinase probe assay (human PBMC); format: binding; details: read-out: percent inhibition
IRE1 = IRE1 (Homo sapiens (Human), UniProt O75460); assay: ActivX kinase probe assay (human PBMC); format: binding; details: read-out: percent inhibition
SMG1 = SMG1 (Homo sapiens (Human), UniProt Q96Q15); assay: ActivX kinase probe assay (human PBMC); format: binding; details: read-out: percent inhibition
[1] = molecular target: GST-tagged truncated LRRK2 (Homo sapiens (Human), UniProt Q5S007); assay: LRRK2 Lantha Screen kinase assay; format: biochemical; details: geometric mean of 2-5 determinations unless otherwise indicated (a: >=6 determinations; b: single determination); read-out: LRRK2 WT IC50
Experimental: LRRK2 kinase activity was measured using Lantha Screen technology from Invitrogen. GST-tagged truncated LRRK2 from Invitrogen (Cat # PV4874) was incubated with a fluorescein-labeled peptide substrate based upon ezrin/radixin/moesin (ERM), also known as LRRKtide (Invitrogen cat #PR8976A), in the presence of a dose response of compound. Upon completion, the assay was stopped and detected with a terbium labeled anti-phospho-ERM antibody (Invitrogen, cat #PR8975A). […] Aliquots (3.5 μL) of the 100% DMSO dose response were mixed with 46.5 μL water then 1 μL of this mixture was added to the 3 μL substrate mix in the 384-well plate. The kinase reaction was started with 3 μL of a working solution of LRRK2 enzyme at a concentration of 4 μg/mL. […] The reaction was allowed to progress at room temperature for two hours and then stopped with the addition of 7 μL of detection buffer (20 mM Tris pH 7.6, 0.01% NP-40, 0.02% NaN3, 6 mM EDTA with 2 nM terbium labeled anti-phospho-ERM).

RSK2 domain1 = RSK2 domain1 (Homo sapiens (Human), UniProt P51812); assay: ActivX kinase probe assay (human PBMC); format: binding; details: read-out: percent inhibition

AKT1, sequence (P31749 whole entry): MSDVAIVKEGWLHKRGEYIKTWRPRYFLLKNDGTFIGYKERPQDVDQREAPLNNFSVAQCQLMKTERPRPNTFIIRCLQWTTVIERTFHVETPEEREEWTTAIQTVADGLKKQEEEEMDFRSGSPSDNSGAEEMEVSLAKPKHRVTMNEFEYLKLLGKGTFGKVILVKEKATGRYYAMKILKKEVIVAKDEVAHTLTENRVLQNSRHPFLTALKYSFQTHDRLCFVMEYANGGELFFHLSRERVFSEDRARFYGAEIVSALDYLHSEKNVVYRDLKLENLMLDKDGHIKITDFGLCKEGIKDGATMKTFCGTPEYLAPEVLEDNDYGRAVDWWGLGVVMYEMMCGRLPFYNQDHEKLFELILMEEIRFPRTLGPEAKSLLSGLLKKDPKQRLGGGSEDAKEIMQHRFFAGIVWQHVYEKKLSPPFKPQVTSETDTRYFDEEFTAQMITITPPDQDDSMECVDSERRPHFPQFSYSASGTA
IRE1, sequence (O75460 19-977): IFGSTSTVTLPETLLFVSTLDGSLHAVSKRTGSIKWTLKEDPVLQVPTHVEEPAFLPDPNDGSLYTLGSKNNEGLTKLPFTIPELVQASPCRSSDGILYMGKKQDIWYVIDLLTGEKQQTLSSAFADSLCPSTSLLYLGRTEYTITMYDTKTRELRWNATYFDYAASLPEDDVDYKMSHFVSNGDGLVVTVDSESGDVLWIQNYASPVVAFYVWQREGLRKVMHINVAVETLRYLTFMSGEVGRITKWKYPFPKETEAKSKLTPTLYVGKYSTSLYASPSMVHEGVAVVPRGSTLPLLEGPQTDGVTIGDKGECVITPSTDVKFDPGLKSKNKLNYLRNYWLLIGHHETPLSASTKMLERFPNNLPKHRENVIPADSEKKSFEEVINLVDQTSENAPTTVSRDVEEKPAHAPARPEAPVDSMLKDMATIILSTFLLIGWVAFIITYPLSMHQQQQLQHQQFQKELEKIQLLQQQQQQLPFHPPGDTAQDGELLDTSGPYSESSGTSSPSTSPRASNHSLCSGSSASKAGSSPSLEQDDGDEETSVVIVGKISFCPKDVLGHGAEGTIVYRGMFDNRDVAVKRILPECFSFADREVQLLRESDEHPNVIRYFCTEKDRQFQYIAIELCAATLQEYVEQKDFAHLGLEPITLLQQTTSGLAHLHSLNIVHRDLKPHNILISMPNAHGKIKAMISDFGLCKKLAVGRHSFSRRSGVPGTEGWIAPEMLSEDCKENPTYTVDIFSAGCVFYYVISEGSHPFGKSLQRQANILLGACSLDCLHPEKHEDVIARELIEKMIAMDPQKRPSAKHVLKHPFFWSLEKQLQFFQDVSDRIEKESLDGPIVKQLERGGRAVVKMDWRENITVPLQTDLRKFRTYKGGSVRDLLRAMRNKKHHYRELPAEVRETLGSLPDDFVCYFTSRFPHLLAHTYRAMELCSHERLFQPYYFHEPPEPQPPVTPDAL
MARK3, sequence (P27448 whole entry): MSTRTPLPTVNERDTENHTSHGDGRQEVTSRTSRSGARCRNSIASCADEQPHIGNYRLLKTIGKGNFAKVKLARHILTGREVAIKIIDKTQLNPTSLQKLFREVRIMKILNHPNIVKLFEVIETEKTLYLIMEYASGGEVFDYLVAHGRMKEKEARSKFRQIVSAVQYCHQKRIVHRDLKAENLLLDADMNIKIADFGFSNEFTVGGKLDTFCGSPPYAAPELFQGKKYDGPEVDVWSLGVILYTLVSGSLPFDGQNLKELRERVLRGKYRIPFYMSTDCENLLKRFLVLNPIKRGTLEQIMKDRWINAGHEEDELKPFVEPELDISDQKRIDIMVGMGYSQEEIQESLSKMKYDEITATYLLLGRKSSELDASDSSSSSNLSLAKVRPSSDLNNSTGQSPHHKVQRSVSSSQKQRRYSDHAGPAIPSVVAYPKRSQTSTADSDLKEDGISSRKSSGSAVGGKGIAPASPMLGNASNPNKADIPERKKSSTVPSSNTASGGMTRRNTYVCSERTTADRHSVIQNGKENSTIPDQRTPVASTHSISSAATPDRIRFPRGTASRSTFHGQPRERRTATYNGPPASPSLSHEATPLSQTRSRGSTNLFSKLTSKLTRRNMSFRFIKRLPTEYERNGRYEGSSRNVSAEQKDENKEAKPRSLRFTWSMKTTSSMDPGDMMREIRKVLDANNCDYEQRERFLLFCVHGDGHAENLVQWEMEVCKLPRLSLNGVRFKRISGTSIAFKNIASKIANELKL
LYN, sequence (P07948 whole entry): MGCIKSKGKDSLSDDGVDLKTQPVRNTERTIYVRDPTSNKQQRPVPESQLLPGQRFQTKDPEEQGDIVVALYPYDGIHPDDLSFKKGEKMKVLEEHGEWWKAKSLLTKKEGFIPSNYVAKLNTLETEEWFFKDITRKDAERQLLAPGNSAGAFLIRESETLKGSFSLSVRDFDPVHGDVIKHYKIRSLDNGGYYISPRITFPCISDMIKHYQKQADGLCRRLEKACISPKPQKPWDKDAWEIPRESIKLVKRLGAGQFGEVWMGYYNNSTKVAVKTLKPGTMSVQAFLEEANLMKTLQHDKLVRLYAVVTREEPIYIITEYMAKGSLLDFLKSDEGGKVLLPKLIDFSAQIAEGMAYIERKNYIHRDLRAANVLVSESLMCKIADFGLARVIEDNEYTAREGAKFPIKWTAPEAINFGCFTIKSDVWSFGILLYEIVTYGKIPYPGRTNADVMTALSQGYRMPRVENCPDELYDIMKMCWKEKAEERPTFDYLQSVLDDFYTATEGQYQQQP
ILK, sequence (Q13418 whole entry): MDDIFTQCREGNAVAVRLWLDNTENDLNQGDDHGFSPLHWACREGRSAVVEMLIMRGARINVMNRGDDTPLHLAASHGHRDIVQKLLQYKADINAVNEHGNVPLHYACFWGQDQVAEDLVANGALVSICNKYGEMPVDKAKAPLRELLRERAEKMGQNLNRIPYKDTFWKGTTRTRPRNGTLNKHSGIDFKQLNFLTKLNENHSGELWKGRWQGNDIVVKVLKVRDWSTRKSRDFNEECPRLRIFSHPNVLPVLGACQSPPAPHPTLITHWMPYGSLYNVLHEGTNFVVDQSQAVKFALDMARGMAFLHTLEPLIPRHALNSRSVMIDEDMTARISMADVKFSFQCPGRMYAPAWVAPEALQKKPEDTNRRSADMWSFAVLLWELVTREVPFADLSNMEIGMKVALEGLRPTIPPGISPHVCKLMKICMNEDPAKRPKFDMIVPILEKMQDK
MAP3K1, sequence (Q13233 whole entry, the tested form may be a part): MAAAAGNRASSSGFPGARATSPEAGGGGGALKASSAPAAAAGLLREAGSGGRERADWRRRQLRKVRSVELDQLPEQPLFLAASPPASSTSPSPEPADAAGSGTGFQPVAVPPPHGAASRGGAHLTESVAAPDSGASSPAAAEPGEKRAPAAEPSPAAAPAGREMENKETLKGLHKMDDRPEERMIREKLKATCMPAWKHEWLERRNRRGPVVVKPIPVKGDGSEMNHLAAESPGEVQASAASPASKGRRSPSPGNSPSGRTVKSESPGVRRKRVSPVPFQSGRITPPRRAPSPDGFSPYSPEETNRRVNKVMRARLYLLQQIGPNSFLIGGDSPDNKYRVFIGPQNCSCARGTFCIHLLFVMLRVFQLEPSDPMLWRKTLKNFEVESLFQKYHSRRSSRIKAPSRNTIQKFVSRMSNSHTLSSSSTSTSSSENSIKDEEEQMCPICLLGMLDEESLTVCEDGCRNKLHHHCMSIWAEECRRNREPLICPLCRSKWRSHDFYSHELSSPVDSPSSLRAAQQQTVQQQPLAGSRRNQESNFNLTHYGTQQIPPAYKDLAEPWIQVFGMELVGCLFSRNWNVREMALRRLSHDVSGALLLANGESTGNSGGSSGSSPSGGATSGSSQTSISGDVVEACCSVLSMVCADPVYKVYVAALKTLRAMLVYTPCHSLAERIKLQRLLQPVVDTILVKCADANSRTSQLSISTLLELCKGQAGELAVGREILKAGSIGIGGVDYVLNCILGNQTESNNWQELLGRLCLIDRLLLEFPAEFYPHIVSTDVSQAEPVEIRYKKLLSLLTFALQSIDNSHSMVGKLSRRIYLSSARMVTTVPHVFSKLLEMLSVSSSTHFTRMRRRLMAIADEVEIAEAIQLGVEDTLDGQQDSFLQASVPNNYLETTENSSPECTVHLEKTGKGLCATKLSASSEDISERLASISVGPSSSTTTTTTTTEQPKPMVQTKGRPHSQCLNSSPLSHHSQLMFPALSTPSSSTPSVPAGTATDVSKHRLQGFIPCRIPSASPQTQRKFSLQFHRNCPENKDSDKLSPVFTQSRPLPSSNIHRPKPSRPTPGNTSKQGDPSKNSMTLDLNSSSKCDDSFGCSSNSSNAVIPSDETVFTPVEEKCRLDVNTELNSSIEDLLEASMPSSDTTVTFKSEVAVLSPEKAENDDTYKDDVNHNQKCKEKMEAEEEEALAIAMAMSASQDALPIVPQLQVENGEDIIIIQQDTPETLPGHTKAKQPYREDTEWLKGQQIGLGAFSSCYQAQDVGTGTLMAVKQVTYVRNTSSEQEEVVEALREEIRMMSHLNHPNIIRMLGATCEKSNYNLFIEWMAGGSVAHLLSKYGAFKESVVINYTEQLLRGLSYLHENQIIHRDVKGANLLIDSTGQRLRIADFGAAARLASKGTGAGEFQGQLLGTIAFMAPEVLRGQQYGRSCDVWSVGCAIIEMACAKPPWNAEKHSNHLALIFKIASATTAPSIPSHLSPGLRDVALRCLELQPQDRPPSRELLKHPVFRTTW
MAP2K3, sequence (P46734 whole entry): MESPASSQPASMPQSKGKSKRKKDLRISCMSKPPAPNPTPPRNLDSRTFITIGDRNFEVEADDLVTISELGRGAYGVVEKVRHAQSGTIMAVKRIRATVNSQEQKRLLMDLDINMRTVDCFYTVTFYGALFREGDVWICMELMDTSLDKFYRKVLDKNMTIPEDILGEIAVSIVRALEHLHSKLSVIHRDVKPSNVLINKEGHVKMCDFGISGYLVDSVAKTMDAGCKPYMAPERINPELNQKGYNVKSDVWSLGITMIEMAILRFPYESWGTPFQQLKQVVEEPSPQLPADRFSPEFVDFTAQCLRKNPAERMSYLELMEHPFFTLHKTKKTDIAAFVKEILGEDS

N#Cc1cccc(-c2c[nH]c3ncnc(N4CCOCC4)c23)c1 [Example 4, 3-[4-(Morpholin-4-yl)-7H-pyrrolo[2,3-d]pyrimidin-5-yl]benzonitrile]
inhibition at 0.1 µM (KHS1): -25.9%
inhibition at 1 µM (KHS1): 12.9%
inhibition at 0.1 µM (MAP3K1): 6.4%
inhibition at 1 µM (MAP3K1): 44.5%
inhibition at 0.1 µM (MSK1 domain1): 1%
inhibition at 1 µM (MSK1 domain1): -3.8%
inhibition at 0.1 µM (CHK2): -6.8%
inhibition at 1 µM (CHK2): 2.2%
inhibition at 0.1 µM (MAP2K3): -12.5%
inhibition at 1 µM (MAP2K3): 6.2%
inhibition at 0.1 µM (STLK5): -15.4%
inhibition at 1 µM (STLK5): 1.2%
inhibition at 0.1 µM (RSK1 domain1): -26.8%
inhibition at 1 µM (RSK1 domain1): 32.9%
inhibition at 0.1 µM (PIK3C3): -2.4%
inhibition at 1 µM (PIK3C3): 13.6%
inhibition at 0.1 µM (MAST3): 2.6%
inhibition at 1 µM (MAST3): 0.8%
inhibition at 0.1 µM (DNAPK): -19.3%
inhibition at 1 µM (DNAPK): 14.7%
percent inhibition (p38d, p38g; 0.1 μM): −17.5%
percent inhibition (p38d, p38g; 1 μM): −5.7%
inhibition at 0.1 µM (MARK3): -2.6%
inhibition at 1 µM (MARK3): 23.7%
percent inhibition (TAO1, TAO3; 0.1 μM): −6.5%
percent inhibition (TAO1, TAO3; 1 μM): 5.9%
inhibition at 0.1 µM (IKKa): -12.1%
inhibition at 1 µM (IKKa): -6.6%
inhibition at 0.1 µM (MST3): 0.1%
inhibition at 1 µM (MST3): 46.2%
inhibition at 0.1 µM (LATS1): -4.8%
inhibition at 1 µM (LATS1): 5.4%
inhibition at 0.1 µM (Erk5): -5%
inhibition at 1 µM (Erk5): -6.3%
inhibition at 0.1 µM (RSK1 domain2): 2.7%
inhibition at 1 µM (RSK1 domain2): 55.8%
inhibition at 0.1 µM (RSK2 domain2): -10%
inhibition at 1 µM (RSK2 domain2): 21.4%
inhibition at 0.1 µM (TLK1): -4.6%
inhibition at 1 µM (TLK1): -3.7%
inhibition at 0.1 µM (PI4KB): -7.4%
inhibition at 1 µM (PI4KB): 4.9%
inhibition at 0.1 µM (IKKe): -7%
inhibition at 1 µM (IKKe): 7.4%
percent inhibition (AKT2, AKT3; 0.1 μM): −2.6%
percent inhibition (AKT2, AKT3; 1 μM): 6.8%
inhibition at 0.1 µM (ILK): -8.9%
inhibition at 1 µM (ILK): -31.6%
inhibition at 0.1 µM (RIPK3): -3.2%
inhibition at 1 µM (RIPK3): 8%
inhibition at 0.1 µM (NDR2): -18.7%
inhibition at 1 µM (NDR2): 22.1%
inhibition at 0.1 µM (EphA1): -17%
inhibition at 1 µM (EphA1): -2.5%
inhibition at 0.1 µM (LYN): -5.4%
inhibition at 1 µM (LYN): 0.8%
inhibition at 0.1 µM (AKT1): -8.8%
inhibition at 1 µM (AKT1): -6.3%
inhibition at 0.1 µM (MAP3K5): 3.3%
inhibition at 1 µM (MAP3K5): 21.3%
inhibition at 0.1 µM (HPK1): -1.5%
inhibition at 1 µM (HPK1): 5.7%
inhibition at 0.1 µM (IRE1): -16%
inhibition at 1 µM (IRE1): 1.8%
inhibition at 0.1 µM (SMG1): -2.5%
inhibition at 1 µM (SMG1): 13%
IC50 [1]: 3 nM
inhibition at 0.1 µM (RSK2 domain1): -6%
inhibition at 1 µM (RSK2 domain1): -11.2%
